Test results taken from US20030125234A1, “Alteration of protein stability” (priority 2001, published 2003).
“Also recorded” adds a separate entry of the source. Residues, ends and D or L forms follow the SMILES beside them.

Tests used:
Assay type in all cases: biochemical
[1] = biological target: T1, chicken egg white lysozyme (Gallus gallus, UniProt P00698); experiment: Lysozyme aggregation (turbidity at 360 nm) induced by DTT; details: for inhibition index: Lysozyme 0.4 mg/mL, 25° C., DTT, compound 1,000×, standard deviation in parenthesis
T1 construct: chicken egg white lysozyme [Sigma]; purchased Sigma; host or cells: egg white
T1 sequence (P00698 19-147): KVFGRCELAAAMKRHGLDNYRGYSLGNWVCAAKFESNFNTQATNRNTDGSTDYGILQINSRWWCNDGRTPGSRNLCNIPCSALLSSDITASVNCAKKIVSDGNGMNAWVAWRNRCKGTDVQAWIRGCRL
Summary of the method: (§1)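 pST 1.27 mg/mL, 60° C, PEG 8000 20 mg/mL; lysozyme 0.4 mg/mL, 25° C, DTT 1.27E-4 M; HLF 0.4 mg/mL, 43° C, DTT 1.27E-4 M; ADH 1 mg/mL, PBS pH 7.0, 37° C, Cu(OP)2 7.76E-5 M. Turbidity at 360 nm over 1 h, vs no-compound control.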

bovine alpha-lactalbumin = biological target: T2, bovine alpha-lactalbumin (Bos taurus, UniProt P00711); experiment: Alpha-lactalbumin aggregation (turbidity at 360 nm) induced by DTT; details: for inhibition index: α Lactalbumin 0.4 mg/mL, 37° C., DTT, compound 1,000×, standard deviation in parenthesis
T2 construct: purchased Sigma
T2 sequence (P00711 20-142): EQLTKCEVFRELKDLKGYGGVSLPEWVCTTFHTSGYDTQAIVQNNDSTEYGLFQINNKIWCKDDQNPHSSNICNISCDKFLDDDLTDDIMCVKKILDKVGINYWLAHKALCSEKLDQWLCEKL
Summary of the method: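 Bovine alpha-lactalbumin (0.4 mg/mL (2.82E-5 M)) was prepared in 50 mM sodium phosphate, 100 mM sodium chloride and 2 mM EDTA, pH 6.2. Aggregation was triggered with 20 μL of 1 M DTT […] at 37° C. and followed for 1 hour as optical density at 360 nm, compared against protein without the dipolar compound.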

[2] = biological target: human acidic fibroblast growth factor (FGF-1) (Homo sapiens, UniProt P05230); experiment: FGF-1 thermal aggregation (turbidity at 360 nm); details: for inhibition index: FGF-1 50 μg/mL, 50° C., standard deviation in parenthesis
Chain of human acidic fibroblast growth factor (FGF-1) (P05230 whole entry): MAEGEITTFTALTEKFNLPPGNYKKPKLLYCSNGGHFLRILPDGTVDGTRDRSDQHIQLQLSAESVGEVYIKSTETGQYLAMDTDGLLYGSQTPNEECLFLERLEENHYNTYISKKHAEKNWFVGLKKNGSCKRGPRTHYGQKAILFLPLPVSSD
Summary of the method: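 Heat-induced aggregation followed as OD360 for 1 h, cycled every 30 s: citrate synthase 96 μg/mL in HEPES/KCl/(NH4)2SO4 buffer pH 7.8 at 45° C; FGF-1 50 μg/mL in phosphate/NaCl pH 7.2 at 50° C. Rate taken as maximum slope of OD versus time, compared with protein without additive.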

[3] = biological target: T3, porcine somatotropin (pST) (Sus scrofa, UniProt P01248); experiment: Porcine somatotropin aggregation (turbidity at 360 nm) with PEG 8000; details: pST 1.27 mg/mL, 60° C., standard deviation in parenthesis
T3 construct: purchased Pfizer, Inc., Groton, Conn., USA (provided, not bought)
T3 sequence (P01248 27-216): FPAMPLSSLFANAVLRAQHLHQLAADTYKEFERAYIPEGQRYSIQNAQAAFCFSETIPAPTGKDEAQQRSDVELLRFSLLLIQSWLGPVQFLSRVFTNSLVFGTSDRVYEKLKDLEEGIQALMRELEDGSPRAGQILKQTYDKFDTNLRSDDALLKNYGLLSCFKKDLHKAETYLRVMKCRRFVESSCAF
Summary of the method: as §1

Compound | inhibition index [1] | inhibition index (bovine alpha-lactalbumin) | inhibition index ([2]; compound 1,000×) | inhibition index ([2]; compound 10,000×) | inhibition index ([3]; compound 100X) | inhibition index ([3]; compound 2,000X) | inhibition of α-lactalbumin aggregation, in words (bovine alpha-lactalbumin) | inhibition of lysozyme aggregation, in words [1] | inhibition of FGF-1 aggregation, in words ([2]; text and FIG. 2 (1,000X to 50,000X))
NCCC(=O)O [beta-alanine] | 1.1 (0.3) | 2.1 (0.4) | 1.1 (0.2) | 1.5 (0.5) | 0.4 (0.1) | 0.8 (0.1) |  |  | 
pentaglycine | 0.2 (0.1) | 3.1 (1.2) |  |  | 0.7 (0.2) |  | Potent inhibitors |  | 
NCCCCC(=O)O [5-aminovalerate, 5-aminovaleric acid] | 1.5 (0.4) | 2.1 (0.8) | 1.1 (0.2) | 2.2 (1.4) | 0.4 (0.0) | 0.7 (0.1) |  |  | 
O=C(O)CCCCC(=O)O [adipate, adipic acid] | 1.4 (0.8) | 1.2 (0.3) | 3.0 (0.7) | 5.0 (3.3) | 0.9 (0.1) | 3.9 (0.7) |  |  | 
tetraglycine | 2.1 (0.5) | 1.3 (0.4) | 3.8 (0.8) |  | 0.8 (0.1) | 3.4 (0.6) |  |  | 
NCCCCCN [1,5-diaminopentane] | 1.3 (0.3) | 0.9 (0.0) | 3.3 (0.7) | 46.5 (19.8) | 0.8 (0.3) | 1.7 (0.4) |  |  | 
NCC(=O)O [glycine] | 1.0 (0.2) | 1.4 (0.3) | 1.3 (0.3) | 3.0 (1.7) | 0.4 (0.1) | 1.2 (0.2) |  |  | 
NCCCCCCCN [1,7-diaminoheptane] | 1.0 (0.3) | 1.8 (0.7) | 2.0 (0.7) | 6.2 (2.4) | 0.7 (0.0) | 1.6( 0.7) |  |  | 
NCCN [ethylenediamine] | 70.2 (6.8) | 0.7 (0.4) | 2.2 (0.7) | 3.3 (1.3) | 0.7 (0.0) | 1.3 (0.1) |  | effective inhibitors; also recorded: strongly inhibited | 
NCCCCN [1,4-diaminobutane] | 1.6 (0.2) | 1.0 (0.2) | 2.5 (1.3) | 33.7 (6.6) | 0.6 (0.1) | 1.4 (0.4) |  |  | 
diglycine | 0.9 (0.0) | 1.0 (0.0) | 1.0 (0.1) | 1.2 (0.4) | 1.9 (0.3) |  |  |  | 
Lys-Lys | 1.3 (0.1) | 1.0 (0.1) | 1.1 (0.1) | 3.1 (0.8) | 0.9 (0.1) |  |  |  | 
O=C(O)CCCC(=O)O [glutarate, glutaric acid] | 1.2 (0.3) | 1.1 (0.2) | 3.0 (0.9) | 10.8 (8.4) | 0.9 (0.1) | 3.1 (0.7) |  |  | 
O=C(O)C(=O)O [oxalate, oxalic acid] | 1.6 (1.0) | 1.3 (0.2) | 5.2 (1.5) | 605.5 (89.1) | 0.8 (0.1) | 1.5 (0.3) |  |  | effective inhibitors
NCCCC(=O)O [4-aminobuytrate, 4-aminobutyric acid] | 1.4 (0.4) | 2.0 (0.8) | 1.5 (0.0) | 1.4 (0.3) | 0.3 (0.0) | 1.1 (0.2) |  |  | 
O=C(O)CCCCCCC(=O)O [suberate, suberic acid] | 1.4 (0.2) | 2.0 (0.7) | 2.3 (0.5) | 7.1 (5.4) | 0.7 (0.0) | 1.7 (0.3) |  |  | 
Glu-Glu | 1.2 (0.7) | 1.0 (0.1) | 1.3 (0.2) | 7.1 (2.7) | 0.6 (0.1) |  |  |  | 
O=C(O)CCCCCC(=O)O [pimelate, pimelic acid] | 2.0 (0.7) | 1.3 (0.3) | 3.1 (1.0) | 12.1 (8.8) | 0.8 (0.1) | 1.5 (0.4) |  |  | 
O=C(O)CCC(=O)O [succinate, succinic acid] | 1.0 (0.3) | 1.1 (0.3) | 2.1 (0.4) | 9.2 (1.9) | 0.9 (0.1) | 2.1 (0.3) |  |  | 
NCCCCCC(=O)O [6-aminocaproate, 6-aminocaproic acid] | 0.8 (0.2) | 2.3 (0.6) | 2.2 (0.3) | 2.4 (0.5) | 0.5 (0.1) | 1.2 (0.2) |  |  | 
NCCCCCCN [1,6-diaminohexane] | 1.0 (0.1) | 1.3 (0.4) | 1.6 (0.6) | 27.0 (9.8) | 0.6 (0.1) | 1.9 (0.2) |  |  | 
O=C([O-])CC(=O)[O-].[Na+].[Na+] [malonate, sodium malonate] | 1.5 (0.4) | 1.8 (0.1) | 2.2 (0.4) | 36.6 (29.0) | 0.9 (0.1) | 4.9 (0.5) |  |  | 
NCC(=O)NCC(=O)NCC(=O)O [triglycine] (H-Gly-Gly-Gly-OH) | 1.6 (0.3) | 0.9 (0.1) | 2.2 (1.1) | 3.1 (0.9) | 0.7 (0.0) | 2.5 (0.3) |  |  | 
NCCCCCCC(=O)O [7-aminoheptanoate, 7-aminoheptanoic acid] | 1.3 (0.2) | 3.9 (2.1) | 0.9 (0.4) | 1.3 (0.1) | 0.4 (0.0) | 1.6 (0.2) | Potent inhibitors |  | 
NCCCN [1,3-diaminopropane] | 2.7 (0.4) | 0.9 (0.3) | 2.2 (0.3) | 3.5 (2.3) | 0.6 (0.0) | 1.7 (0.2) |  |  | 
